These results are taken from US20170079296A1, “Methods For Treating Plants Or Fruits” (The United States of America, as represented by the …, priority 2015, published 2017).

Experiment [1] has as its system bananas. As to the kind of experiment: Color change of bananas after ethylene mediated ripening treatment (colorimeter). It counts as in vivo. The conditions noted are these: banana surface color after ripening treatment (48 hours). As to the method: (§1) The color change of the produce was measured using a Minolta colorimeter (Minolta Co. Ltd, Japan). The L values reported were means of 12 readings; three readings from each side of each of the bananas, and two readings per avocado. For bananas, ‘a’ was an indicator of green, and higher ‘a’ value meant less green; ‘b’ was an indicator of yellow, and higher ‘b’ value meant more yellow. For avocados, the degree of browning was expressed by the percent decrease in the L value calculated by subtracting the L value of treated and control samples measured at evaluation times from the time zero L value obtained from untreated samples measured immediately after cutting, divided by the time zero value and multiplied by 100.

Experiment [2] has as its system avocados. The experiment in a line: Color change of avocados after ethylene mediated ripening treatment (colorimeter). The class given is in vivo, avocado. As to the method: as §1
The test system of experiment [3] is bananas. As to the kind of experiment: Texture (tensile property, firmness) of bananas after ripening treatment. It counts as in vivo, banana. Here is the method: (§2) Each measurement was repeated at least three times. […] Five replicates were measured for each measurement.
(§3) Tensile Property. […] At least five replicates were measured for each treatment.

Experiment [4] has as its system avocados. The conditions noted are these: after 48 hours of treatment. Here is the method: as §2, §3
Another experiment has as its system climacteric produce. As to the kind of experiment: Controlled ripening of climacteric produce. It counts as in vivo.
Where [5] appears, read: avocado surface color after ripening treatment (48 hours).

From the text for climacteric produce: Avacados and grocery bananas (pretreated at warehouse or retail facility) were acquired directly from local supermarket, and ‘non-gassed’ bananas were directly purchased from local produce distribution center (Coastal Sunbelt, Jessup, Md.).

In the experiment with bananas [1], `C=C` [ethylene] showed an L of 66.74 ± 0.77, a c of 45.80 ± 4.64 and a h of 92.08 ± 0.83. In the experiment with bananas [1] (higher a = less green), this molecule gave an a of −1.66 ± 0.57. In addition, the b with bananas [1] (higher b = more yellow) worked out at 45.77 ± 4.60. Also, in the experiment with avocados [2] (after treatment, in words), the “skin color of avocado” value is reported as “darkened slightly”. Moreover, in the experiment with avocados [2] (setting [5]), the L worked out at 30.17 ± 0.23, the a is given as −1.31 ± 3.01, the b was determined as 13.54 ± 1.66 and the c is reported as 13.60 ± 3.44. Further, in the experiment with avocados [2] (setting [5]), the h is reported as 95.53 ± 0.29. In addition, the “Young's modulus (initial slope): change of elasticity of bananas” value with bananas [3] was “less elastic and more viscous”. Besides, the avocado flesh texture entry in the experiment with avocados [4] is on record as “softened significantly”. In the experiment on climacteric produce (after 48 hours of treatment), the “ripening state of samples” value is “fully ripened”. Moreover, the “total ripening time required” value in the experiment on climacteric produce (versus no ethylene treatment) is “reduced by a half”.
